Earlier results, collected in US20220257469A1, “PHARMACEUTICAL UNIT DOSE SYSTEMS FOR ORAL DRY SOLUTION AND SUSPENSION” (Brillian Pharma Inc., priority 2019, published 2022).

Settings: liquid suspension, in five days, not refrigerated

Structure (SMILES): O=C(O)[C@H]1/C(=C/CO)O[C@@H]2CC(=O)N21 [Clavulanic acid]
- loss of potency: 30-40%
